From US20050059641A1, “Compositions and methods for treating and preventing cancer using analogs of vitamin D” (Aphios Corporation, priority 2003, published 2005)

How the values were obtained:
[1] = tested on: keratinocytes (primary cells); assay: 3H-thymidine incorporation assay, keratinocytes; type: cell-based, human; settings: 10^−6M
Description: (§1) It is well known that secretory epithelial cells are the main sites for the development of cancers of the breast, prostate and various other organs.
(§2) In a study, investigators compared the growth-inhibitory effects of 25-OH-D3-3-BE and 1,25(OH)2D3 in several VDR-positive epithelial cells, e.g. keratinocytes (primary skin cells), MCF-7 cells (breast cancer cells), hormone-sensitive LNCaP and hormone-refractory PC3 cells (prostate cancer cells), and PZ-HPV-7 (papillovirus immortalized normal prostate cells) by using ^3H-thymidine incorporation assays (FIGS. 14-19).

[2] = tested on: MCF-7 cells (breast cancer cells); assay: 3H-thymidine incorporation assay, MCF-7; type: cell-based; settings: 10^−6M
Description: as §1
It is well-established that the biological properties of 1,25(OH)2D3 and its analogs are mediated by their interaction with VDR.
as §2

[3] = tested on: LNCaP cells (prostate cancer cells); assay: 3H-thymidine incorporation assay, LNCaP; type: cell-based, human; settings: 10^−6M
Experimental: (§3) The inventors further studied the effect of 1,25(OH)2D3-3-BE on LNCAP cells (most closely resembling human hormone-sensitive prostate cancer) and PZ-HPV-7 cells (immortalized normal prostate cells). The cells were treated with ethanol or 10^−6M of either 1,25(OH)2D3 or 1,25(OH)2D3-3-BE for 16 hours and the effect on proliferation was determined by ^3H-thymidine incorporation assays as described earlier. The viable cell count was determined by Methylene blue assay. The Methylene blue assay is a simple colorimetric method that is widely used to determine the viable cell count.
The inventors studied dose-dependency of antiproliferation and cytotoxicity by 1,25(OH)2D3 or 1,25(OH)2D3-3-BE in LNCaP cells. The cells were treated with 10^−8-10^−6M of either 1,25(OH)2D3 or 1,25(OH)2D3-3-BE or ethanol (used as a control). The effect on proliferation and viable cell count were determined by using ^3H-thymidine incorporation and Methylene blue assay respectively. […]
as §2

[4] = tested on: PC3 cells (prostate cancer cells); assay: 3H-thymidine incorporation assay, PC3; type: cell-based, human; settings: PC-3 cells, 10^−6M
Description: as §1, §2
Since 25-OH-D3-3-BE contains an ester bond, its hydrolysis by esterases in growing cells would produce equimolar amounts of bromoacetic acid (BAA) and 25-OH-D3 (see, FIG. 21).
Furthermore, fetal calf serum (FCS) contains many proteins, including vitamin D-binding protein, which potentially could absorb 25-OH-D3-3-BE before it reacts with VDR. Typically, the assays described herein were carried out in a media containing 10% FCS (after serum-depriving the cells for 15 hours).

[5] = tested on: PZ-HPV-7 (papillovirus immortalized normal prostate cells); assay: 3H-thymidine incorporation assay, PZ-HPV-7; type: cell-based; settings: PZ-HPV-7 cells, 10^−6M
Experimental: as §1, §3, §2

[6] = in vivo toxicity study in CD-1 mice; design: Serum Calcium on day 12: unit not given here; settings: for Body Weight on Day 12 / Serum Calcium on day 12 / Body Weight On Day 0: CD-1 mice; for Body Weight On Day 0: beginning of the experiment
Description: Investigators completed an in vivo study to determine the toxicity of 25-OH-D3-3-BE at various doses in CD-1 mice. The animals (average weight ˜30 gms) were maintained with normal chow and water ad libitum. […] At the end of the experiment the animals were lightly anesthetized and blood collected after decapitation for serum calcium-analysis. […] Frequency of administration, body weights at the beginning and at the end of the experiment and serum calcium values are given in the accompanying Table 1.

[7] = tested on: prostate tumor induced with PC-3 cells; assay: in vivo effect in mice bearing prostate tumor induced with PC-3 cells; design: species or system male SCID mice; settings: SCID mice with PC-3 tumor
Experimental: Sesame oil solutions (200 μl) of either 25-OH-D3 (10 μg) or 25-OH-D3-3-BE (13.2 μg, molar equivalent of 25-OH-D3) or vehicle were administered i.p. in alternate days for two weeks. […] At the end, mice were anesthetized, tumors were removed, and blood was collected. Tumors were embedded in paraffin and sections were made.

PC-3 cells = assay: DNA-fragmentation analysis; type: cell-based, human; settings: 250 nM, 10 hours
Experimental: (a) DNA-fragmentation analysis: PC-3 cells (2×10^6) were treated with 250 nM of 1,25(OH)2D3, 25-OH-D3 or 25-OH-D3-3-BE for 10 hours. The cells were harvested and lysed in 0.5 ml lysis buffer (20 mM Tris-HCl, 10 mM EDTA, 0.5% Triton X-100, pH 8.0), and DNA was extracted using phenol-chloroform procedure. The DNA was resuspended in 0.1 ml of 20 mM Tris-HCl, pH 8 and treated with Rnase, followed by electrophoresis on 1.2% agarose gel in TAE. The DNA was visualized under UV light after ethidinium bromide staining.

caspase-3 = assay: Caspase Colorimetric assay, caspase-3; type: cell-based; settings: PC3 cells, 10 nM, 14 hours
Experimental: (§4) Caspase-activity: There are several markers for apoptosis, and caspase activity is one of them; and their levels normally go up under apoptotic conditions. Investigators determined the levels of caspases 3, 8 and 9 by Caspase Colorimetric assay kits from R&D Systems (Minneapolis, Minn.) and used according to the manufacturer's instructions. Briefly, PC3 cells (1×10^6) were treated with 10 nM of 1,25(OH)2D3, 25-OH-D3 or 25-OH-D3-3-BE for 14 hours in culture medium (DMEM, 10% FBS and antibiotics). The cells were collected by centrifugation at 1000 RPM for 5 min. The cell pellet was lysed with lysis buffer, and the lysate was incubated on ice for 10 min. and centrifuged for 10,000 RPM for 5 min. Protein was estimated using Bradford protein estimation kit (BioRad). The enzymatic reactions were carried out in 96 well plate. For each reaction 100 μg lysate protein in 50 μl was incubated with 50 μl of 2×reaction buffer and 5 μl of caspase-3 or caspase-8 or caspase-9 calorimetric substrate for 2 h at 37° C. The absorbance was determined at 405 nm.

caspase-8 = assay: Caspase Colorimetric assay, caspase-8; type: cell-based; settings: PC3 cells, 10 nM, 14 hours
Experimental: as §4

caspase-9 = assay: Caspase Colorimetric assay, caspase-9; type: cell-based; settings: PC3 cells, 10 nM, 14 hours
Experimental: as §4

C=C1CCC(OC(=O)CBr)CC1=CC=C1CCCC2(C)C1CCC2C(C)CCCC(C)(C)O (stereo not drawn) [25-OH-D3-3-BE, 25-hydroxyvitamin D3-3-bromoacetate]
growth-inhibitory effect (3H-thymidine incorporation) [1]: antiproliferative
lethal to the cells [1]: not
growth-inhibitory effect (3H-thymidine incorporation) [2]: antiproliferative
lethal to the cells [2]: not
growth-inhibitory effect (3H-thymidine incorporation) [3]: stronger antiproliferative agent than 1,25(OH)2D3
lethal to the cells [3]: lethal
growth-inhibitory effect (3H-thymidine incorporation) [4]: stronger antiproliferative agent than 1,25(OH)2D3
lethal to the cells [4]: lethal
growth-inhibitory effect (3H-thymidine incorporation) [5]: antiproliferative
lethal to the cells [5]: not
Body Weight on Day 12 ([6]; 3.3 μg/kg intraperitoneally): 30.36 ± 1 grams
Serum Calcium on day 12 ([6]; 3.3 μg/kg intraperitoneally): 9.1 ± 0.2
Body Weight On Day 0 ([6]; 3.3 μg/kg intraperitoneally): 29 ± 0.6 grams
Body Weight on Day 12 ([6]; 33 μg/kg intraperitoneally): 32.9 ± 1.4 grams
Serum Calcium on day 12 ([6]; 33 μg/kg intraperitoneally): 9.4 ± 0.2
Body Weight On Day 0 ([6]; 33 μg/kg intraperitoneally): 31 ± 0.83 grams
Body Weight on Day 12 ([6]; 166.7 μg/kg intraperitoneally): 30.7 ± 1 grams
Serum Calcium on day 12 ([6]; 166.7 μg/kg intraperitoneally): 9.7 ± 0.1
Body Weight On Day 0 ([6]; 166.7 μg/kg intraperitoneally): 30.55 ± 0.7 grams
toxicity in vivo ([6]; mouse, dose as high as 166.7 μg/Kg): non-toxic
loss of body weight ([7]; 13.2 μg i.p. in alternate days for two weeks): no significant loss of body weight
Hematoxylin-Eosin staining of the tumor sections ([7]; 13.2 μg i.p. in alternate days for two weeks, versus vehicle (sesame oil)): considerably less cellular
condition of the mice at the end of treatment ([7]; 25-OH-D3 10 μg or 25-OH-D3-3-BE 13.2 μg (molar equivalent) i.p. in alternate days for two weeks): viable
DNA fragmentation (apoptosis) (PC-3 cells): DNA fragmentation was observed
Caspase-3 induction (caspase-3): induced
Caspase-8 induction (caspase-8): induced
Caspase-9 induction (caspase-9): induced
